# Data taken from publication PMC4900566, “Pharmacokinetic-Pharmacodynamic Analysis on Inflammation Rat Model after Oral Administration of Huang Lian Jie Du Decoction” (PLoS ONE, 2016).
# Assay: Hepatic first-pass effect / hepatic clearance rate (jugular vs pyloric vein AUC0-t) in inflamed rats
# Assay type: in vivo, Sprague-Dawley rats
# Settings: inflamed rats (G5, n = 5), oral HLJDD; HCR% = 100×(AUC0−t pyloric vein − AUC0−t jugular vein)/AUC0−t pyloric vein
# Description: For the PK-PD analysis, cannulas were implanted in each rat’s jugular vein (n = 22). To study the hepatic first-pass effect (HFPE), the jugular vein and the pyloric vein of each rat (n = 5) were cannulated according to the method described by Hye J. Chung et al. with slight modifications. Instead of the portal vein, the pyloric vein was cannulated to minimize the interference of blood flow in the portal vein [41]. The surgery was performed under anesthesia (3% chloral hydrate solution, intraperitoneal injection; 3.5 mL/kg) 5 days prior to the experiment. Rats with jugular vein intubation surgery were divided into four groups: a control group with HLJDD (G1, n = 6), aninflammatory group with HLJDD (G2, n = 6), aninflammatory group with physiological saline (G3, n = 5) and another inflammatory group with HLJDD (G4, n = 5). G1 and G2 were used for the pharmacokinetic study, while G3 and G4 were used for the pharmacodynamic study. Rats with jugular and pyloric vein cannulation for HFPE analysis were assigned to another inflammatory group with HLJDD (G5, n = 5).
# The prepared HLJDD-EP solution was administered to the rats (G1, G2, G4 and G5) at 2 mL/100g body weight (crude material content: 3.5 g/kg) by oral gavage, and the G3 group was given the same volume of physiological saline. In the G1 and G2 groups, blood specimens (300 μL) were obtained before dosing and subsequently at 5 min, 10 min, 30 min, 1, 2, 4, 6, 8, 12, 24, 36 and 48 h after the oral administration of HLJDD-EP solution. In the G3 and G4 groups, blood samples (300 μL) were collected prior to dosing and followed at 10 min, 30 min, 1, 2, 4, 8, 24 and 48 h after drug administration. The rectal temperature of rats in the G3 and G4 groups was immediately monitored after each collection of blood. For the HFPE assay, blood specimens (150 μL) from both the jugular vein and the pyloric vein of the G5 rats were simultaneously taken before dosing and subsequently at 5 min, 10 min, 30 min, 1, 2, 4, 6, 8, 12, 24, 36 and 48 h after oral administration. Samples were collected in heparinized Eppendorf tubes and centrifuged at 3000 rpm for 15 min. The plasma was stored at -80°C until assay.
# For the pharmacokinetic investigation and HFPE analysis, 100 μL aliquots of plasma were mixed with 5 μL of ascorbic acid (dissolved in physiological saline, w/v: 1 g/100 mL) and 200 μL of methanol (containing an internal standard stock solution with 80.0 ng/mL swertiamarin, 1.5 ng/mL corynoline and 33.0 ng/mL icariin), followed by vortexing and centrifuging at 15000 rpm for 20 min to remove the precipitate. The supernatant was dried with nitrogen at 40°C. […] The supernatant was analyzed using Agilent 1290 ultra-high performance liquid chromatography coupled with an Agilent 6490 Triple Quadrupole Mass Spectrometer (Agilent Technologies, Palo Alto, CA, USA).
# Pharmacokinetic parameters of the determined compounds were processed by the non-compartmental method using Phoenix Winnonlin software (Pharsight Corporation, USA). […] The mean residence time (MRT) was determined as AUMC/AUC. The plasma half-life (HLλz), maximum plasma concentration (Cmax), the time to reach Cmax (Tmax) and other parameters following the administration of HLJDD were determined from the observed data. […] Concentrations of cytokines were analyzed by cytometric bead array software (FCAP Array version 3.0, BD Bioscience). All the data were expressed as the mean±standard deviation (SD). […]
row,SMILES,hepatic clearance rate (HCR)
1,"COc1cc(O)c2c(=O)cc(-c3ccccc3)oc2c1O[C@@H]1O[C@H](C(=O)O)[C@@H](O)[C@H](O)[C@H]1O [F7, 5,8-dihyroxy-7-methoxy flavone-8-O-glucuronide]",approximately zero
2,"COC(=O)C1=CO[C@@H](O[C@@H]2O[C@H](CO)[C@@H](O)[C@H](O)[C@H]2O)[C@H]2[C@@H]1C=C[C@@]2(O)CO [I1, gardenoside]",-43.7%
3,"COC(=O)C1=CO[C@@H](O[C@@H]2O[C@H](CO[C@@H]3O[C@H](CO)[C@@H](O)[C@H](O)[C@H]3O)[C@@H](O)[C@H](O)[C@H]2O)[C@@H]2C(CO)=CC[C@H]12 [I3, genipin-1-gentiobioside]",-156.6%
4,"COC(=O)C1=CO[C@@H](O[C@@H]2O[C@H](CO)[C@@H](O)[C@H](O)[C@H]2O)[C@@H]2C(CO)=C[C@@H](O)[C@H]12 [I2, scandoside methyl ester]",approximately zero
